Biological target: ATP-dependent translocase ABCB1 (Homo sapiens, UniProt P08183)
Test: TP_TRANSPORTER: mRNA expression level of MDR1 was inversely related to the concentration/dose ratio in vivo, recipients of living-donor liver transplantation
Assay type: functional, organism-based

Sequence of ATP-dependent translocase ABCB1 (P08183 whole entry): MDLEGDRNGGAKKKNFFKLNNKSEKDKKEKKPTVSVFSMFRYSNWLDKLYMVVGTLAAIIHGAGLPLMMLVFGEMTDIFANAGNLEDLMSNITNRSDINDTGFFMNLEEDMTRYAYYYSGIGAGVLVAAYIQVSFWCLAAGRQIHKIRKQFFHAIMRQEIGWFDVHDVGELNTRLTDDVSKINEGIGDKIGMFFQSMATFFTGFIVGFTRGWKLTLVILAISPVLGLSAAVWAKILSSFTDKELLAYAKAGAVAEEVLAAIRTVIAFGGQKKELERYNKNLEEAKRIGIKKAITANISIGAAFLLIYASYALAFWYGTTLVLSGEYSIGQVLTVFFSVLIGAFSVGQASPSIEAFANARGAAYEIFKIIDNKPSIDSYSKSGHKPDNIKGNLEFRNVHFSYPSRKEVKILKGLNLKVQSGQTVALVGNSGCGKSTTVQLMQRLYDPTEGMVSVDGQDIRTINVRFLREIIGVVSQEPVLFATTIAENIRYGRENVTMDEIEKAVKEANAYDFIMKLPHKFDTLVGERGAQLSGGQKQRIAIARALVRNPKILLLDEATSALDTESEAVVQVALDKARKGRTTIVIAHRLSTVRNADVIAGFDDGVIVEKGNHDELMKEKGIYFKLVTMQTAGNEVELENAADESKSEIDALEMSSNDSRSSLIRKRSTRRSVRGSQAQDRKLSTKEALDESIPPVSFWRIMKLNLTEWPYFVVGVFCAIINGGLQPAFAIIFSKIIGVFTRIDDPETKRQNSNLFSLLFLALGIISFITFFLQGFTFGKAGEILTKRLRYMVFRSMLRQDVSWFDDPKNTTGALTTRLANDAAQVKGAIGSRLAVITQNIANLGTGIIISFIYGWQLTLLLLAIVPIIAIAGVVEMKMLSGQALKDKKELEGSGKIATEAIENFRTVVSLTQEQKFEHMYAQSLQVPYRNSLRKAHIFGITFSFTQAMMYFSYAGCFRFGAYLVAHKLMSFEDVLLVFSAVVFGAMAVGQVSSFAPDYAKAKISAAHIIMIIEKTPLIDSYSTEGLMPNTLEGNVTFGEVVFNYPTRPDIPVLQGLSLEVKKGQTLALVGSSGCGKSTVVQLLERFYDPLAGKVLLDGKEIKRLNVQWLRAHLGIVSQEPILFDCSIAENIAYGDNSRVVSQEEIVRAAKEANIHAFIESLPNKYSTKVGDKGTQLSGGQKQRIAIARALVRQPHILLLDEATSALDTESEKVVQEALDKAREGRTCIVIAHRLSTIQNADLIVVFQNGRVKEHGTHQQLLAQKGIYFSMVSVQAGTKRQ

SMILES: C=CC[C@@H]1/C=C(\C)C[C@H](C)C[C@H](OC)[C@H]2O[C@@](O)(C(=O)C(=O)N3CCCC[C@H]3C(=O)O[C@H](/C(C)=C/[C@@H]3CC[C@@H](O)[C@H](OC)C3)[C@H](C)[C@@H](O)CC1=O)[C@H](C)C[C@@H]2OC [TACROLIMUS ANHYDROUS]
- Activity: substrate [+]

From ChEMBL document CHEMBL2074381, “Pharmacokinetic and prognostic significance of intestinal MDR1 expression in recipients of living-donor liver transplantation” (Clin Pharmacol Ther, 2001)
